Patent US20090111759A1, “Synergistic Combination of Glutamate-and Gaba-Gated Chloride Agonist Pesticide and at Least One Vitamin E, Niacin, or Derivatives Thereof” (priority 2006, published 2009)
Where two headings read alike, the source gives them in different places.

Key:
[1] = system: nymphs of Dysdercus cingulatus; test: Dorsal application of Abamectin and Vitamin E derivatives, mortality (Example 19); type: in vivo; conditions: combination of Abamectin and the Vitamin E derivative; 2 μl dorsally; Colby
Experimental: (§1) Various solutions of Vitamin E derivatives, Abamectin and combinations of Vitamin E derivatives and Abamectin were applied dorsally on nymphs of Dysdercus cingulatus. On each Dysdercus cingulatus 2 μl test solution was applied. The mortality of the treatments was recorded. The mortality results were analysed according to Colby. The synergistic activity of Abamectin and various Vitamin E derivatives on Dysdercus cingulatus is illustrated in table 19.

houseflies [2] = test: Dorsal application of Abamectin and nicotinic acid derivatives, mortality (Example 21); type: in vivo, housefly; conditions: combination of Abamectin and the nicotinic acid derivative; 2 μl dorsally; Colby
Experimental: Various solutions of nicotinic acid derivatives, Abamectin and combinations of nicotinic acid derivatives and Abamectin were applied dorsally on houseflies. On each housefly 2 μl test solution was applied. The mortality of the treatments was recorded. The mortality results were analysed according to Colby.

[3] = system: Dysdercus cingulatus nymphs; type: in vivo
Experimental: (§2) A range of Ivermectin solutions in acetone was prepared. Similarly, a range of tocopherol solutions was prepared. Mixed solutions of Ivermectin and tocopherol in acetone were prepared as well. Nymphs of Dysdercus cingulatus were treated topically with either an Ivermectin acetone solution (2 μl), a tocopherol acetone solution (2 μl) or mixed solutions (2 μl).
The mortality was recorded after 24 and 48 h. The results were evaluated by the Colby-method.

[4] = system: Dysdercus cingulatus nymphs; type: in vivo; remark: listed apart in the source
Experimental: Abamectin, Ivermectin and tocopherol solutions in acetone were prepared. Mixed solutions of either Abamectin or Ivermectin and tocopherol were also prepared. Nymphs of Dysdercus cingulatus were treated topically with Abamectin acetone solution (20,000 ng/nymph), Ivermectin acetone solution (20,000 ng/nymph), a tocopherol acetone solution (20,000 ng/nymph) or a solution containing Abamectin and tocopherol or Ivermectin and tocopherol in the ratio 1:3 (20,000 ng total/nymph). The solutions were applied dorsally on the nymphs.
The Dysdercus cingulatus mortality was followed over time and recorded. Log time-mortality curves were constructed for the Abamectin and Ivermectin solutions and for the mixtures with tocopherol. An LT50 value was calculated for each application.

Haemonchus contortus = test: Larvae feeding inhibition study (Example 23); conditions: for LFI-50 H. con.: larvae feeding inhibition 50%; for LFI-50 H. con. / LFI-96 H. con. / LFI-99 H. con.: Ivermectin resistant isolate, mixtures: based on concentration of IVM or DOR; for LFI-96 H. con.: larvae feeding inhibition 96%; for LFI-99 H. con.: larvae feeding inhibition 99%
Text: (§3) The calculations done according to Wadley and shown in Table 23 indicate that synergistic action of Ivermectin and tocopheryl acetate and Doramectin and tocopheryl acetate was pre-sent in the larvae feed inhibition study. The synergistic action of Ivermectin and tocepheryl acetate in the H. contortus experiment is of particular interest because the H. contortus iso-late used was Ivermectin resistant.

[5] = system: Teladorsagia (Ostertagia) circumcincta; test: Larvae feeding inhibition study (Example 23); conditions: for LFI-50 T. cir.: larvae feeding inhibition 50%; for LFI-50 T. cir. / LFI-96 T. cir. / LFI-99 T. cir.: mixtures: based on concentration of IVM or DOR; for LFI-96 T. cir.: larvae feeding inhibition 96%; for LFI-99 T. cir.: larvae feeding inhibition 99%
Text: as §3

[6] = system: Trichostrongylus colubriformis; test: Larvae feeding inhibition study (Example 23); conditions: for LFI-50 T. col.: larvae feeding inhibition 50%; for LFI-50 T. col. / LFI-96 T. col. / LFI-99 T. col.: mixtures: based on concentration of IVM or DOR; for LFI-96 T. col.: larvae feeding inhibition 96%; for LFI-99 T. col.: larvae feeding inhibition 99%
Text: as §3

[7] = system: Onchocerca lienalis microfilariae; test: Microfilariae mobility test (Example 26)
Tetranychus urticae = test: Spray test of Spinosad and tocopheryl acetate on bean plants (Vicia faba), leaf protection (Example 13); type: in vivo; conditions: single active, leaf protection 7 days after mites placed, average of four evaluations
Text: Using the alternative method for determining synergism the effect of each mixture of Spinosad and tocopheryl acetate is compared with the effect of the same rate of each of the active ingredients used alone.

[8] = system: adult sea lice (Lepeophtheirus salmonis); conditions: tested alone at various concentrations
Experimental: Eur. 5th Ed was studied on adult sea lice (Lepeophtheirus salmonis), a fish parasite, in seawater in Petri dishes. Emamectin benzoate and tocopheryl aceate were tested at various concentrations. In addition, mixtures of Emamectin benzoate and tocopheryl aceate, ratio 1:10 based on weight, were tested as well.

[9] = system: cat fleas (Ctenocephalides felis felis) larvae; test: In vitro contact test on flea larvae (Example 25)
[10] = system: cat fleas (Ctenocephalides felis felis) adult; test: In vitro contact test on adult fleas (Example 25)
[11] = system: cat fleas (Ctenocephalides felis felis) larvae; test: In vitro larvae test based on systemic activity (Example 25)
[12] = system: larvae of Lucilia cuprina (sheep blowfly)
Text: A mixture of Spinosad and tocopheryl acetate, all-rac alpha, Ph.

Spodoptera exiqua larvae = test: Topical application of Emamectin-benzoate/tocopherol acetone solutions, LD50 (Example 9); type: in vivo; conditions: topical 1 μl acetone solution; mortality recorded 48 h after applying
Experimental: A range of Emamectin-benzoate and tocopherol, all-rac alpha, solutions with varying concentrations of each compound in acetone was prepared. Mixed solutions of Emamectin-benzoate and tocopherol, all-rac alpha, were also prepared. Larvae of Spodoptera exiqua were treated topically with either an Emamectin-benzoate acetone solution (1 μl), a tocopherol acetone solution (1 μl) or a solution containing both of the two compounds in the ratios 1:1 and 1:3 (1 μl). Log dose-mortality curves were constructed for the Emamectin-benzoate solutions, the tocopherol solutions and the mixtures. […] A comparison was made between the actual observed LD50 and the expected value, based on the Wadley method as described previously.

houseflies [13] = test: Dorsal application of Abamectin and Vitamin E derivatives, mortality (Example 18); type: in vivo, housefly; conditions: combination of Abamectin and the Vitamin E derivative; 2 μl dorsally; Colby
Experimental: as §1, with “on houseflies.” for “on nymphs of Dysdercus cingulatus.”, “each housefly” for “each Dysdercus cingulatus”, “on houseflies” for “on Dysdercus cingulatus”, “table 18.” for “table 19.”

[14] = system: Dysdercus cingulatus nymphs; type: in vivo; conditions: 2000 ng applied on each nymph; 24 h after applying
Experimental: A range of Abamectin solutions in acetone was prepared. Similarly, a range of tocopherol, all-rac alpha, solutions in acetone was prepared. Abamectin solution (2 μl), tocopherol solution (2 μl) or both were applied topically on nymphs of Dysdercus cingulatus. Abamectin was applied dorsally while tocopherol was applied ventrally. […] The mortality of the nymphs was recorded 24 h after applying the solutions.

[15] = system: Dysdercus cingulatus nymphs; test: Topical application of Abamectin/tocopherol acetone solutions, LD50 (Example 5); type: in vivo; conditions: sum of Abamectin and tocopherol; mortality recorded 48 h after applying
Experimental: as §2, with “of Abamectin” for “of Ivermectin”, “of tocopherol, all-rac alpha,” for “of tocopherol”, “an Abamectin” for “an Ivermectin”, “μl). The Dysdercus cingulatus mortality was recorded 48 h after applying the products.” for “μl).”
Log dose-mortality curves were constructed for the Abamectin and the tocopherol treatments. LD50 values based on the sum of Abamectin and tocopherol contents (ng active ingredient(s) per nymph) were calculated.
From the observed LD50 values for Abamectin and tocopherol expected LD50 values for the mixtures were calculated according to Wadley's formula.

[16] = 30 ng applied per nymph, after 24 h
[17] = 30 ng applied per nymph, after 48 h
[18] = 100 ng applied per nymph, after 24 h
[19] = 100 ng applied per nymph, after 48 h
[20] = 300 ng applied per nymph, after 24 h
[21] = 300 ng applied per nymph, after 48 h
[22] = tested alone, in the tested dose range
[23] = inactivation of the fleas, mixture: based on the concentration of Selamectin

Compound: Cc1c(C)c2c(c(C)c1OC(=O)CCC(=O)O)CC[C@@](C)(CCC[C@H](C)CCC[C@H](C)CCCC(C)C)O2 [(+)alpha-tocopheryl succinate]
- R (obs mortality/exp mortality) [1]: 1.3

Compound: CCOC(=O)c1cccnc1 [Ethyl nicotinate]
- R (obs mortality/exp mortality) (houseflies [2]): 1.4

Compound: Ivermectin
- Mortality (%) for each ingredient [3, 16]: 8%
- Mortality (%) for each ingredient [3, 17]: 27%
- Mortality (%) for each ingredient [3, 18]: 33%
- Mortality (%) for each ingredient [3, 19]: 65%
- Mortality (%) for each ingredient [3, 20]: 63%
- Mortality (%) for each ingredient [3, 21]: 86%
- LT50 ([4]; in total 20,000 ng/nymph applied dorsally, two replicates of ten nymphs): 9.1 h
- LFI-50 H. con. (Haemonchus contortus): 6.10 ppb
- LFI-96 H. con. (Haemonchus contortus): 32.12 ppb
- LFI-99 H. con. (Haemonchus contortus): 40.68 ppb
- LFI-50 T. cir. [5]: 6.37 ppb
- LFI-96 T. cir. [5]: 12.59 ppb
- LFI-99 T. cir. [5]: 17.35 ppb
- LFI-50 T. col. [6]: 2.01 ppb
- LFI-96 T. col. [6]: 8.63 ppb
- LFI-99 T. col. [6]: 10.81 ppb
- EC50 ([7]; mobility of the microfilariae, read-out: EC50 value for Ivermectin): 5.8 µM

Compound: CC(=O)Oc1c(C)c(C)c2c(c1C)CCC(C)(CCC[C@H](C)CCC[C@H](C)CCCC(C)C)O2 (mixture of isomers) [tocopheryl acetate]
- % protection (Tetranychus urticae; 100 g/ha): 15%
- % protection (Tetranychus urticae; 300 g/ha): 8.8%
- feeding inhibition activity (Haemonchus contortus; [22]): did not have any feeding inhibition activity
- feeding inhibition activity [5, 22]: did not have any feeding inhibition activity
- feeding inhibition activity [6, 22]: did not have any feeding inhibition activity
- activity in its own right [8]: did not have any activity
- activity in its own right ([9]; tested alone): did not have any activity
- activity in its own right ([10]; tested alone): did not have any activity
- activity in its own right ([11]; tested alone): did not have any activity
- effect on mobility of the microfilaria ([7]; alone, in the concentration range tested): did not affect the mobility
- activity on the larvae [12]: no activity

Compound: Emamectin-benzoate
- LD50obs (Spodoptera exiqua larvae): 4.30 ng AI(s)/larvae

Compound: Cc1c(C)c2c(c(C)c1O)CC[C@@](C)(CCC[C@H](C)CCC[C@H](C)CCCC(C)C)O2 [(+)alpha-tocopherol]
- R (obs mortality/exp mortality) (houseflies [13]): 2.0
- R (obs mortality/exp mortality) [1]: 1.1

Compound: CO[C@H]1C[C@H](O[C@H]2[C@H](C)O[C@@H](O[C@@H]3/C(C)=C/C[C@@H]4C[C@@H](C[C@]5(C=C[C@H](C)[C@@H](C6CCCCC6)O5)O4)OC(=O)[C@@H]4C=C(C)[C@@H](O)[C@H]5OC/C(=C\C=C\[C@@H]3C)[C@]54O)C[C@@H]2OC)O[C@@H](C)[C@@H]1O [DOR, Doramectin]
- LFI-50 H. con. (Haemonchus contortus): 2.63 ppb
- LFI-96 H. con. (Haemonchus contortus): 10.37 ppb
- LFI-99 H. con. (Haemonchus contortus): 16.30 ppb
- LFI-50 T. cir. [5]: 6.12 ppb
- LFI-96 T. cir. [5]: 13.14 ppb
- LFI-99 T. cir. [5]: 18.52 ppb
- LFI-50 T. col. [6]: 2.57 ppb
- LFI-96 T. col. [6]: 8.04 ppb
- LFI-99 T. col. [6]: 12.22 ppb

Compound: Cc1c(C)c2c(c(C)c1O)CCC(C)(C(=O)O)O2 (stereo not shown) [Trolox, 6-hydroxy-2,5,7,8-tetramethylchroman-2-carboxylic acid]
- R (obs mortality/exp mortality) (houseflies [13]): 1.3

Compound: Cc1c(C)c2c(c(C)c1OC(=O)c1cccnc1)CC[C@@](C)(CCC[C@H](C)CCC[C@H](C)CCCC(C)C)O2 [(+)alpha-tocopheryl nicotinate]
- R (obs mortality/exp mortality) (houseflies [13]): 3.0
- R (obs mortality/exp mortality) [1]: 1.2
- R (obs mortality/exp mortality) (houseflies [2]): 3.0

Compound: O=C(O)c1cccnc1 [Nicotinic acid]
- R (obs mortality/exp mortality) (houseflies [2]): 1.4

Compound: CO[C@H]1C[C@H](O[C@@H]2/C(C)=C/C[C@@H]3C[C@@H](C[C@]4(CC[C@H](C)[C@@H](C5CCCCC5)O4)O3)OC(=O)[C@@H]3C=C(C)/C(=N/O)[C@H]4OC/C(=C\C=C\[C@@H]2C)[C@]43O)O[C@@H](C)[C@@H]1O [Selamectin]
- ED50 Larvae contact [9, 23]: 31 ppm
- ED50 Adult contact [10, 23]: 24330 ppm
- ED50 Larvae systemic [11, 23]: 1.5 ppm

Compound: COC(=O)c1cccnc1 [Methyl nicotinate]
- R (obs mortality/exp mortality) (houseflies [2]): 3.0

Compound: Spinosad
- % protection (Tetranychus urticae; 100 g/ha): 5%
- % protection (Tetranychus urticae; 300 g/ha): 5%

Compound: O=C(O)c1ccncc1 [Isonicotinic acid]
- R (obs mortality/exp mortality) (houseflies [2]): >2

Compound: CC(=O)Oc1c(C)c(C)c2c(c1C)CC[C@@](C)(CCC[C@H](C)CCC[C@H](C)CCCC(C)C)O2 [(+)alpha-tocopheryl acetate]
- R (obs mortality/exp mortality) (houseflies [13]): 1.9
- R (obs mortality/exp mortality) [1]: 1.2

Compound: Cc1cc(O)cc2c1O[C@](C)(CCC[C@H](C)CCC[C@H](C)CCCC(C)C)CC2 [(+)delta-tocopherol]
- R (obs mortality/exp mortality) [1]: 1.6

Compound: Cc1c(C)c2c(c(C)c1O)CCC(C)(CCCC(C)CCCC(C)CCCC(C)C)O2 (racemic) [tocopherol, tocopherol, all-rac alpha]
- % Mortality for each ingredient [14]: 0%
- LD50obs [15]: >20,000 ng tocopherol ng AI(s) per nymph
- Mortality (%) for each ingredient [3, 16]: 0%
- Mortality (%) for each ingredient [3, 17]: 0%
- Mortality (%) for each ingredient [3, 18]: 0%
- Mortality (%) for each ingredient [3, 19]: 0%
- Mortality (%) for each ingredient [3, 20]: 0%
- Mortality (%) for each ingredient [3, 21]: 0%
- LD50obs (Spodoptera exiqua larvae): >20000 ng AI(s)/larvae
- Mortality during the test period ([4]; 20,000 ng tocopherol per nymph, 24 h test period): did not die
